Experimental findings from paper PMC4680847 (Structure (London, England : 1993), 2015) are described below.

Changes are numbered by the printed parent chain. Like-named read-outs stand apart in the source and are kept apart here.

Type in all cases: binding
The target of experiment [1] is T1, RNase A (Bos taurus, UniProt P61823).
T1 sequence (P61823 27-150): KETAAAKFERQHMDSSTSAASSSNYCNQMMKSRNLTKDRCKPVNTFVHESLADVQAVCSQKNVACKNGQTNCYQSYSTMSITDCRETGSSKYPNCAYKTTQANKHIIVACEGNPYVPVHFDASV
In words: ITC.

The target in experiment [2] is T2, RNase A (Bos taurus, UniProt P61823, A135G).
T2 sequence (P61823 27-150 A135G): T1 sequence (P61823 27-150) with A109G
In words: crystal structure.

The target in experiment [3] is T2, RNase A. The experiment in a line: crystal structure. The source holds these as a separate data set.

The term Kd denotes the concentration at which binding is half-saturated. Read a low Kd as tighter binding. Regarding `O=c1ccn([C@@H]2O[C@H](CO)[C@@H](OP(=O)(O)O)[C@H]2O)c(=O)[nH]1` [3′-UMP], the Kd at RNase A [1] was determined as 67 ± 6 µM; at RNase A [2], 50 ± 8 µM.

Turning to `Nc1ncnc2c1ncn2[C@@H]1O[C@H](COP(=O)(O)O)[C@@H](O)[C@H]1O` [5′-AMP], the equilibrium dissociation constant (Kd) on RNase A [1] was determined as 105 ± 1 µM; on RNase A [3], 440 ± 26 µM.
